We go through 29 compounds from patent publication US12391641B2, “Prostaglandin EP4 receptor antagonist compounds” (NXERA PHARMA UK LIMITED, priority 2019, dated 2025).

SMILES strings stand for the structures. Some results are limits rather than exact numbers.

In the assay the target is T1, Human prostaglandin E2 receptor 4 (EP4) (Homo sapiens, UniProt P35408).
T1 construct: expressed in transfected cells; host or cells: HEK293 cells transduced with EP4 BacMam virus
T1 sequence (P35408 whole entry): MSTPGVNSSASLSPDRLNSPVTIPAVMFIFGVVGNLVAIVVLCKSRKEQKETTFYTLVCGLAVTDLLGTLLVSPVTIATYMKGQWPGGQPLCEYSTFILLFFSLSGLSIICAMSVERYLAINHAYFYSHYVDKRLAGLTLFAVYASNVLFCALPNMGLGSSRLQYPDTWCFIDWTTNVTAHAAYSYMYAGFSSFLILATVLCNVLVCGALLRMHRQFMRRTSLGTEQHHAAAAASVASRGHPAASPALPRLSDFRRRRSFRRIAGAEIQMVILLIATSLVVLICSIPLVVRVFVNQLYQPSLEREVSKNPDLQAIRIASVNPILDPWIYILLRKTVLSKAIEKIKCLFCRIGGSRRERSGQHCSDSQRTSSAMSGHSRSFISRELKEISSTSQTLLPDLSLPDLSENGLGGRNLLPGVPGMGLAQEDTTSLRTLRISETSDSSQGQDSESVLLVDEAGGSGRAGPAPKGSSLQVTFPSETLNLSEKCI
Nature of the assay: cAMP Gs Functional Assay (HTRF cAMP dynamic-2), antagonism of PGE2. Type of assay: cell-based. Conditions: HEK293 cells transfected with EP4 BacMam virus; PGE2 challenge at EC80 (7 nM); pIC50 converted to functional pKb with a modified Cheng Prussoff equation; read-out: Human EP4 fpKb (converted). As to the method: Cloning, Baculovirus generation, large scale infection of HEK293 cells and membrane preparation: Human prostaglandin E2 receptor 4 (EP4) was cloned into pBacMam expression vector (GeneScript, UK). Transposition of EP4 DNA was performed using Invitrogen's Bac-to-Bac Baculovirus Expression Systems. P0 baculovirus was generated by transfecting SF9 Cells with bacmid DNA using Cellfectin II transfection reagent (ThermoFisher Scientific, UK, catalog number 10362-100). Following P0 generation P1 virus was then generated ready for large scale infection and membrane preparation. HEK293 cells were grown in DMEM+Glutamax, supplemented with 10% heat inactivated fetal bovine serum (FBS). Cells were infected at a seeding density of 3.5 million cells/mL in 500 cm^3 flasks at 5% v/v EP4 Bacman. Expression was carried out over 36 hr period at 37° C. with 5% CO2. The cells were removed using PBS and a cell scrapper. The cell culture was centrifuged at 2500 RPM for 10 mins at 4° C. The supernatant was then poured off and the pellet stored at −80° C. The pellet was defrosted and re-suspended in 15 mL of homogenising buffer (20 mM HEPES, 10 mM EDTA, pH 7.4). Then homogenised in mechanical homogeniser (VMR) for 10 seconds. The membrane was centrifuged in centrifuge tubes at 40,000 g for 15 mins at 4° C. The supernatant was poured away and re-suspended in 15 mL of homogenising buffer. Homogenised for 20 seconds. The membrane was centrifuged at 40,000 g for 45 mins at 4° C. The membrane was re-suspended in 3 mL of storage buffer (20 mM HEPES, 0.1 mM EDTA, pH 7.4) mixing well. The resulting membranes were then stored at −80° C.
cAMP Gs Functional Assay: cAMP production following EP4 receptor activation was determined using the Homogeneous Time-Resolved Fluorescence (HTRF) cAMP dynamic-2 assay (Cisbio, France). HEK293 cells were transfected using a 0.5% EP4 Bacman virus for 36 hours, before dissociating the cells, and freezing at […].
On the day of testing, increasing concentration of test compounds, alongside positive controls (1 uM ONO-AE3-208) and negative control (DMSO (Sigma-Aldrich, UK) were added to a ProxiPlate-384 Plus, White 384-shallow well Mircoplate, (PerkinElmer, USA) using the ECHO dispense.
Cells were defrosted in a water bath and resuspended in DMEM supplemented with 10% FBS before centrifuging at 1200 RPM for 5 mins to form a pellet. The pellet was resuspended in assay buffer (DMEM+0.5 mM IBMX (Tocris, Abingdon, UK, Catalog Number 2845)) to a 1×10^6 cells/mL. Cell suspension, for a final assay concentration of 5000 cell/well was added using the multidrop to the pre-dispensed assay plate. The plate was then incubated at 37° C. for 30 mins, with 5% CO2. After incubation, EC80 concentration (7 nM) of PGE2 (EP4 agonist) was added to the plate. In parallel, a PGE2 dose-response curve was dispense to a separate plate. Assay buffer was then dispensed on top. The cAMP production was determined as manufacturer's instructions, before plates were read on a PheraStar fluorescence plate reader (BMG LabTech, Germany).
The pIC50 was converted to a functional pKb value using a modified Cheng Prussoff equation where Kd=agonist EC50 and Lhot=agonist challenge concentration;
(In general: In TR-FRET formats the signal depends on donor and acceptor labels being close together.)
For the compound `COc1cccc(COC(C(=O)N[C@@H](C)c2ccc(C(=O)O)cc2)C(C)C)c1` (mixture of isomers) [Example 3, 4-((1S)-1-(2-((3-methoxybenzyl)oxy)-3-methylbutanamido)ethyl)benzoic acid], the Ki is greater than 67.6 nM.
Under `COc1ccc(COC(C(=O)N[C@@H](C)c2ccc(C(=O)O)cc2)C(C)C)cc1` (mixture of isomers) [Example 6, 4-((1S)-1-(2-((4-methoxybenzyl)oxy)-3-methylbutanamido)ethyl)benzoic acid] stands 28.2 nM; under `CC(O[C@@H](C(=O)N[C@@H](C)c1ccc(C(=O)O)cc1)C(C)C)c1ccc(F)cc1` (mixture of isomers) [Example 46, 4-((1 S)-1-((2R)-2-(1-(4-fluorophenyl)ethoxy)-3-methylbutanamido)ethyl)benzoic acid], 7.24 nM; under `CC(C)C(OCc1ccc(C2COC2)cc1)C(=O)N[C@@H](C)c1ccc(C(=O)O)cc1` (mixture of isomers) [Example 47, 4-((1S)-1-(3-methyl-2-((4-(oxetan-3-yl)benzyl)oxy)butanamido)ethyl)benzoic acid], 64.6 nM.
Regarding `CC(O[C@@H](C(=O)N[C@@H](C)c1ccc(C(=O)O)cc1)C(C)C)c1ccc(C(F)(F)F)cc1` (mixture of isomers) [Example 51, 4-((1S)-1-((2R)-3-methyl-2-(1-(4-(trifluoromethyl)phenyl)ethoxy)butanamido)ethyl)benzoic acid], the Ki was 417 nM.
In the case of `C[C@H](NC(=O)C(OCc1ccc(C(F)(F)F)cc1)C1CCC1)c1ccc(C(=O)O)cc1` (mixture of isomers) [Example 92, 4-((1S)-1-(2-cyclobutyl-2-((4-(trifluoromethyl)benzyl)oxy)acetamido)ethyl)benzoic acid] it was 4.68 nM; in that of `CC(C)C(OCc1cccc(F)c1)C(=O)N[C@@H](C)c1ccc(C(=O)O)cc1` (single isomer, unassigned) [Example 17], 3.02 nM; in that of `CC(C)C(OCc1cccc(F)c1)C(=O)N[C@@H](C)c1ccc(C(=O)O)cc1` (single isomer, unassigned) [Example 18], 457 nM.
Turning to `CC(C)C(OCc1cccc(C2COC2)c1)C(=O)N[C@@H](C)c1ccc(C(=O)O)cc1` (single isomer, unassigned) [Example 48], the Ki was 141 nM.
In the case of `CC(C)C(OCc1cccc(C2COC2)c1)C(=O)N[C@@H](C)c1ccc(C(=O)O)cc1` (single isomer, unassigned) [Example 49], the Ki is 2.29 nM.
In the case of `CC(C)C(OCc1cccc(C2COC2)c1)C(=O)NC1(c2ccc(C(=O)O)cc2)CC1` (single isomer, unassigned) [Example 86, 4-(1-(3-methyl-2-((3-(oxetan-3-yl)benzyl)oxy)butanamido)cyclopropyl)benzoic acid] it was 0.447 nM.
Under `CC(C)C(OCc1cccc(C2COC2)c1)C(=O)NC1(c2ccc(C(=O)O)cc2)CC1` (single isomer, unassigned) [Example 87, 4-(1-(3-methyl-2-((3-(oxetan-3-yl)benzyl)oxy)butanamido)cyclopropyl)benzoic acid] stands greater than 603 nM.
In the case of `C[C@H](NC(=O)C(OCc1ccc(C(F)(F)F)cc1)C1CCC1)c1ccc(C(=O)O)cc1` (single isomer, unassigned) [Example 93], the Ki is 3.63 nM.
In the case of `C[C@H](NC(=O)C(OCc1ccc(C(F)(F)F)cc1)C1CCC1)c1ccc(C(=O)O)cc1` (single isomer, unassigned) [Example 94] it was 5.01 nM.
In the case of `CC(C)[C@@H](OCc1ccc(C(F)(F)F)cc1)C(=O)N[C@@H](C)c1ccc(C(=O)O)cc1` [Example 1, 4-((S)-1-((R)-3-methyl-2-((4-(trifluoromethyl)benzyl)oxy)butanamido)ethyl)benzoic acid] it was 0.776 nM.
Under `CC(C)[C@@H](OCc1ccc(C(F)(F)F)cc1)C(=O)NC1(c2ccc(C(=O)O)cc2)CC1` [Example 2, (R)-4-(1-(3-methyl-2-((4-(trifluoromethyl)benzyl)oxy)butanamido)cyclopropyl)benzoic acid] stands 0.891 nM.
Take `CC(C)[C@H](OCc1ccc(F)cc1)C(=O)N[C@@H](C)c1ccc(C(=O)O)cc1` [Example 4, 4-((S)-1-((S)-2-((4-fluorobenzyl)oxy)-3-methylbutanamido)ethyl)benzoic acid]: the Ki was greater than 195 nM.
Under `CC(C)[C@@H](OCc1ccc(F)cc1)C(=O)N[C@@H](C)c1ccc(C(=O)O)cc1` [Example 5, 4-((S)-1-((R)-2-((4-fluorobenzyl)oxy)-3-methylbutanamido)ethyl)benzoic acid] stands 4.17 nM; under `CC(C)[C@H](OCc1cccc(S(C)(=O)=O)c1)C(=O)N[C@@H](C)c1ccc(C(=O)O)cc1` [Example 7, 4-((S)-1-((S)-3-methyl-2-((3-(methylsulfonyl)benzyl)oxy)butanamido)ethyl)benzoic acid], greater than 195 nM; under `CC(C)[C@@H](OCc1cccc(S(C)(=O)=O)c1)C(=O)N[C@@H](C)c1ccc(C(=O)O)cc1` [Example 8, 4-((S)-1-((R)-3-methyl-2-((3-(methylsulfonyl)benzyl)oxy)butanamido)ethyl)benzoic acid], 8.71 nM.
Under `CC(C)[C@H](OCc1ccc(S(C)(=O)=O)cc1)C(=O)N[C@@H](C)c1ccc(C(=O)O)cc1` [Example 9, 4-((S)-1-((S)-3-methyl-2-((4-(methylsulfonyl)benzyl)oxy)butanamido)ethyl)benzoic acid] stands greater than 195 nM; under `CC(C)[C@@H](OCc1ccc(S(C)(=O)=O)cc1)C(=O)N[C@@H](C)c1ccc(C(=O)O)cc1` [Example 10, 4-((S)-1-((R)-3-methyl-2-((4-(methylsulfonyl)benzyl)oxy)butanamido)ethyl)benzoic acid], 20.4 nM; under `CC(C)[C@@H](OCc1ccc(Cl)cc1)C(=O)N[C@@H](C)c1ccc(C(=O)O)cc1` [Example 11, 4-((S)-1-((R)-2-((4-chlorobenzyl)oxy)-3-methylbutanamido)ethyl)benzoic acid], 3.16 nM.
In the case of `CC(C)[C@@H](OCc1cccc(Cl)c1)C(=O)N[C@@H](C)c1ccc(C(=O)O)cc1` [Example 12, 4-((S)-1-((R)-2-((3-chlorobenzyl)oxy)-3-methylbutanamido)ethyl)benzoic acid] it was 0.813 nM; in that of `CC(C)[C@@H](OCc1ccc(C(F)F)cc1)C(=O)N[C@@H](C)c1ccc(C(=O)O)cc1` [Example 13, 4-((S)-1-((R)-2-((4-(difluoromethyl)benzyl)oxy)-3-methylbutanamido)ethyl)benzoic acid], 2.34 nM; in that of `CC(C)[C@@H](OCc1cccc(C(F)F)c1)C(=O)N[C@@H](C)c1ccc(C(=O)O)cc1` [Example 14, 4-((S)-1-((R)-2-((3-(difluoromethyl)benzyl)oxy)-3-methylbutanamido)ethyl)benzoic acid], 1.82 nM.
`CC(C)[C@@H](OCc1cccc(C(F)(F)F)c1)C(=O)N[C@@H](C)c1ccc(C(=O)O)cc1` [Example 15, 4-((S)-1-((R)-3-methyl-2-((3-(trifluoromethyl)benzyl)oxy)butanamido)ethyl)benzoic acid]: the Ki is 0.288 nM.
In the case of `CC(C)[C@H](OCc1ccc(C(F)(F)F)cc1)C(=O)N[C@@H](C)c1ccc(C(=O)O)cc1` [Example 16, 4-((S)-1-((S)-3-methyl-2-((4-(trifluoromethyl)benzyl)oxy)butanamido)ethyl)benzoic acid] it was 178 nM.
In the case of `CC(C)[C@@H](OCc1ccccc1)C(=O)N[C@@H](C)c1ccc(C(=O)O)cc1` [Example 19, 4-((S)-1-((R)-2-(benzyloxy)-3-methylbutanamido)ethyl)benzoic acid], the Ki was 12.9 nM.
